{
  "source": "patent US20250152627A1",
  "about": "“COMPOSITIONS AND METHODS FOR ENHANCING IMMUNE CELL FUNCTION USING MODIFIED CELLS WITH GLYCOCALYX EDITING ENZYMES” (Cornell University, priority 2021, published 2025)",
  "assay_type_in_all_cases": "cell-based",
  "key": {"1E7 cells": {"tested_on": "1E7 cells", "experiment": "Ring-SAIM glycocalyx material thickness, wild-type 1E7 cells", "conditions": "wild-type 1E7 cells, 1,000 ng/mL doxycycline induction; TD139 at 10 μm", "experimental": "Silicon wafers with ˜1900 nm thermal oxide (Addison Engineering) were diced into 7 mm by 7 mm chips, and the oxide layer thickness for each chip was measured with a FilMetrics F50-EXR. Prior to use, the chips were then cleaned with 1:1 methanol and hydrochloric acid for 15 minutes, followed by 1 minutes in a plasma cleaner (Harrick Plasma, PDC-001). The chips were incubated with 4% (v/v) (3-mercaptopropyl)trimethoxysilane in absolute ethanol for 30 minutes at room temperature. After washing with absolute ethanol, the chips were subsequently incubated with 4 mM 4-maleimidobutyric acid N-hydroxysuccinimide ester in absolute ethanol for 30 minutes and rinsed with PBS. 50 μg/mL human plasma fibronectin in PBS was incubated with the functionalized chips overnight at 4° C. for conjugation. Cells were seeded onto the chips at 2×10^4 cm^−2 in full culture medium with varying doxycycline concentrations and incubated for 24 hours. Cells expressing different length of Muc1 were labelled with GFP nanobody conjugated to Alexa Fluor 647 in MCF10A growth media for 10 minutes at 37° C. Cells were labelled with MemGlow dye or CellBrite Steady 550 in serum-free, phenol red-free DMEM/F12 for 10 minutes at 37° C. Sample were then rinsed 3× in PBS, inverted into a 35 mm glass-bottom imaging dish containing imaging buffer (MemGlow dye or CellBrite dye: serum-free, phenol red-free DMEM/F12, Alexa Fluor 647-conjugated GFP nanobody: phenol red-free DMEM/F12 supplemented with 5% horse serum, 20 ng/mL EGF, […], 500 ng/mL hydrocortisone, 100 ng/mL cholera toxin and 1× penicillin/streptomycin) and imaged at 37° C. […]\n(§1) Scanning angle interference microscopy (SAIM) was conducted on a custom circle-scanning microscope.^40 The core of the setup was an inverted fluorescence microscope (Ti-E, Nikon). […] Fluorescence emission was collected with a quad band filter cube and single band filters (TRF89901-EMv2, Chroma) mounted in a motorized filter wheel (Sutter). […]"}, "[1]": {"tested_on": "1E7 cells overexpressing GCNT1", "experiment": "Ring-SAIM glycocalyx material thickness, GCNT1 overexpressing 1E7 cells", "conditions": "1E7 cells overexpressing GCNT1, treatment with recombinant galectin", "experimental": "Silicon wafers with ˜1900 nm thermal oxide (Addison Engineering) were diced into 7 mm by 7 mm chips, and the oxide layer thickness for each chip was measured with a FilMetrics F50-EXR. Prior to use, the chips were then cleaned with 1:1 methanol and hydrochloric acid for 15 minutes, followed by 1 minutes in a plasma cleaner (Harrick Plasma, PDC-001). The chips were incubated with 4% (v/v) (3-mercaptopropyl)trimethoxysilane in absolute ethanol for 30 minutes at room temperature. After washing with absolute ethanol, the chips were subsequently incubated with 4 mM 4-maleimidobutyric acid N-hydroxysuccinimide ester in absolute ethanol for 30 minutes and rinsed with PBS. 50 μg/mL human plasma fibronectin in PBS was incubated with the functionalized chips overnight at 4° C. for conjugation. Cells were seeded onto the chips at 2×10^4 cm^−2 in full culture medium with varying doxycycline concentrations and incubated for 24 hours. […]\nas §1"}, "cell surface Muc1": {"tested_on": "cell surface Muc1", "experiment": "Fluorescence recovery after photobleaching (FRAP) of Muc1-GFP", "conditions": "1E7 GCNT1 OE with 10 μM recombinant human galectin-1", "experimental": "FRAP experiments were performed by using a Zeiss i880 confocal microscope with 63×N.A. 1.4 Oil immersion lens. Five pre-bleached images were firstly taken and photobleaching was performed with 488 nm laser for about 10 seconds to bleach a target area of 2.55 μm×2.55 μm. 1E7 clone (n=11) and 1E7 GCNT1 overexpression (n=10) were used to measure mobile fraction of Muc1-GFP. 10 μM recombinant human galectin-1 was incubated with 1E7 GCNT1 cells for 10 minutes at 37° C. (n=9). Intensity profiles were corrected by normalizing to the time-course decay of GFP signal in non-bleached area by using MATLAB code from Advanced Imaging Center (https://www.mathworks.com/matlabcentral/fileexchange/47327-frap-zip)"}},
  "data": [
    {"compound": "OC[C@H]1O[C@@H](S[C@@H]2O[C@H](CO)[C@H](O)[C@H](n3cc(-c4cccc(F)c4)nn3)[C@H]2O)[C@H](O)[C@@H](n2cc(-c3cccc(F)c3)nn2)[C@H]1O", "note": "[TD139]", "values": [
      {"measurement": "change of the material thickness of the glycocalyx", "setting": "1E7 cells", "result": "did not significantly change"}
    ]},
    {"compound": "recombinant galectin-1: recombinant human galectin-1 (LGALS1) expressed in E. coli", "values": [
      {"measurement": "decrease of glycocalyx thickness compared to untreated cells", "setting": "[1]", "result": 19.4, "unit": "nm"},
      {"measurement": "effect on mobility and mobile fraction of cell surface Muc1", "setting": "cell surface Muc1", "result": "does not significantly affect"},
      {"measurement": "change of the material thickness of the glycocalyx", "setting": "1E7 cells", "result": "did not significantly change"}
    ]},
    {"compound": "recombinant galectin-3: recombinant human galectin-3 (LGALS3) expressed in E. coli", "values": [
      {"measurement": "decrease of glycocalyx thickness compared to untreated cells", "setting": "[1]", "result": 9.5, "unit": "nm"},
      {"measurement": "change of the material thickness of the glycocalyx", "setting": "1E7 cells", "result": "did not significantly change"}
    ]}
  ]
}
